# Measurements as given in paper PMC4299541 (Cardiovascular Diabetology, 2015).
# pKd: −log10 of the molar value.
# Legend:
# [1] = test system: Control-aptamer (DNA, single strand, phosphorothioate linkages (positions as in ref 24)) TTCGGCCTGGGGGCGGCCAGTTCGGGTCCAGTCGCGGGAG; assay: quartz crystal microbalance (27 MHz); details: immobilised compound; highest concentration not stated
# [2] = test system: AGE-aptamer (DNA, aptamer, phosphorothioate linkages (positions drawn in Figure 3A)) TGTAGCCCGAGTATCATTCTCCATCGCCCCCAGATACAAG; assay: quartz crystal microbalance (27 MHz), curve fitting; details: aptamer immobilised, GLAP added; not affected by 2% fetal bovine serum
# [3] = test system: GLAP-aptamer (DNA, aptamer, phosphorothioate linkage at each three bases (exact positions drawn in Figure 1C)) GCGGGTTGGGAGCCACTAGTAGCAACGTGCGACCCTCTACGAAGCAAACCATCCTCA; assay: as above; details: immobilised compound; not affected by 2% fetal bovine serum
# [4] = molecular target: T1, RAGE (receptor for AGEs), vRAGE (Homo sapiens, UniProt Q15109); assay: 27-MHz quartz crystal microbalance, vRAGE immobilized; assay type: binding
# T1 construct: gene AGER
# T1 sequence (Q15109 23-116 limits assumed): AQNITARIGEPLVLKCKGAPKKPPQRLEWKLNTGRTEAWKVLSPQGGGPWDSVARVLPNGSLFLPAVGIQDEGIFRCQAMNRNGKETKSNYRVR
binding [1],KD [2],KD [3],pKd [4],Compound
no,33 µM,2.6 µM,–,CC(=O)NC(CCCC[n+]1cc(O)cc(CO)c1)C(=O)O (racemic)
–,–,–,4.23,GLAP
